Test system: Rac1 in endothelial EA.hy.926 cells
Assay: Rac1 activation (GST-PAK1 pull down of active GTP-Rac1)
Type: cell-based, human
Settings: peptides 50 μM, 30 or 180 min
Description: Some assays employed in this study were performed as follow. Rac1 activation. The pGEXTK-PAK1 70-117 construct encoding a GST fusion to p21-activated kinase (PAK-1)-binding domain (PBD) was kindly made available by Dr. J Chernoff (Addgene plasmid 12217). GST-PAK1 was purified from transformed BL21 (DE3) Escherichia coli using B-Per lysis buffer (Pierce) with lysozyme, DNAse 1 and Halt EDTA-free protease inhibitor cocktail (Pierce) on Glutathione-agarose according to the manufacturer's recommendation. Pull down of active Rac1 was performed as described in Pellegrin et al., Curr. Protoc. Cell Biol. 2008; Chapter 14:Unit 14.8. Briefly, endothelial EA.hy.926 cells (5*10^6 per plate) were grown in 100-mm dishes for 48 hr and serum starved overnight before addition of peptides (50 μM) for 30 or 180 min. Lysates (2 mg) were mixed with GST-PAK1 Glutathione-agarose (150 μg) and after washing active GTP-Rac1 was eluted from GST-PAK1 Glutathione-agarose by boiling in reducing SDS sample buffer (LI-COR). Active GTP-Rac1 was resolved on 12% SDS PAGE, transferred to Immobilon-FL PVDF membrane, and immunoblotted with a mouse anti-Rac1 antibody (BD Bioscience) and IRDye 800CW donkey anti-mouse secondary antibodies (LI-COR). Immunoblots were scanned on the Odyssey Imager (LI-COR). Quantification of integrated fluorescence intensity (K counts) was done using Odyssey Application Software v3.0 (LI-COR).

## NPNDKYEPFWEDEEKNESGL (listed as Homo sapiens) [TR47-66]
  activation of Rac1: induced APC-like activation of Rac1

Reference: US10273279B2, “Protease activated receptor-1 (PAR1) derived cytoprotective polypeptides and related methods” (THE SCRIPPS RESEARCH INSTITUTE, priority 2011, dated 2019)
